Experimental data: patent US20260274922A1, “SYNTHETIC ESTROGEN RECEPTOR (ER)-DERIVED PEPTIDE” (THE TEXAS A&M UNIVERSITY SYSTEM, priority 2023, published 2026)
Where no end group is shown, it is not given here. The star is where a group is joined. FITC = O=C1OC2(c3ccc(O)cc3Oc3cc(O)ccc32)c2ccc(NC(=S)*)cc21

Assays:
db/db mice = assay type: in vivo, mouse
Description: (§1) Obese mouse models and AF1 peptide treatment. For the high-fat diet (HFD)-induced obese mouse model, the 6-8-week-old male mice were fed with HFD (HFD; 60% kcal from fat, D12492; Research diet, New Brunswick, NJ) for 11 weeks. Then mice received 5 mg/kg body weight control or AF1 peptide through retro orbital injection (twice per week; 5 weeks). For genetic obesity mouse model, the 8-week-old db/db mice were administered with 5 mg/kg body weight control or AF1 peptide through retro orbital injection (twice per week; 5 weeks). Glucose tolerance and insulin tolerance tests were performed in the fourth and fifth week after treatment, respectively. Body composition was measured using EchoMRI™ one day before sacrificing the mice.
(§2) Glucose and insulin tolerance tests. For glucose tolerance tests, mice were fasted for 16 h and intraperitoneally (i.p.) injected with dextrose (1 g/kg body weight for mice fed with regular diet; 0.5 g/kg body weight for db/db mice or mice fed with HFD). For insulin tolerance tests, mice were fasted for 6 h and i.p. injected with insulin solution (1 U/kg body weight for male mice; 0.75 U/kg body weight for female mice). Blood glucose levels were measured using glucometer at indicated time points.
(§3) Hematoxylin and eosin staining and Oil Red O staining. Livers were embedded into paraffin after being fixed by PFA, and then cut into 5 μm sections. After deparaffinization and hydration, liver sections were stained with hematoxylin for 5 min. After differentiation by 1% acid alcohol, liver sections were stained with 1% eosin for 3 min. Finally, liver sections were dehydrated and mounted with mounting media. For Oil Red O staining, liver frozen sections were prepared and fixed in 10% neutral buffered formalin for 10 min after air dry for 1 h. Liver sections were stained in Oil Red O working solution for 15 min after a quick dip in 60% isopropanol. Liver sections were then stained with hematoxylin for 3 min and covered with aqueous mounting gel. Liver sections were observed using slide scanner (Leica).
(§4) Co-immunoprecipitation and Western blotting analysis. […] Protein bands were detected using a ChemiDoc image system.
(§5) Serum lipid profile analysis. Serum triglyceride, AST, ALT, cholesterol, LDL, HDL, NEFA, and ALP were measured using DxC 700 AU Chemistry Analyzer (Beckman Coulter).
Serum insulin and liver triglyceride analysis. Serum insulin and triglyceride levels were measured by using mouse insulin ELISA kit (Mercodia) and triglyceride assay kit (Abcam), respectively. […]

[1] = tested on: diet-induced obesity (DIO) mice; assay type: in vivo, mouse
Description: as §1, §2
RNA extraction and quantitative real-time PCR. Total RNA was extracted from livers or primary hepatocytes using TRIzol (Invitrogen, Thermo Fisher Scientific), purified with chloroform, 80% ethanol, isopropanol, and RNA column, eluted with RNase free water, and reverse transcribed into cDNA using iScript Reverse Transcription Supermix (Bio-Rad, Hercules, CA). Quantitative real-time PCR (qPCR) was conducted using SsoAdvanced Universal SYBR Green Supermix (Bio-Rad, Hercules, CA) on CFX384 real-time PCR detection system (Bio-Rad, Hercules, CA). Q-PCR started with 95° C. incubation for 3 min, followed by 39 cycles of 95° C. for 5 s and 60° C. for 30 s. The threshold cycle (CT) values were obtained and used to calculate the relative transcriptional level of target genes by 2^−ΔΔCT method with Cyclophilin (Cyp) as an internal control. […].
as §3, §4, §5
Serum insulin and liver triglyceride analysis. Serum insulin and triglyceride levels were measured by using mouse insulin ELISA kit (Mercodia) and triglyceride assay kit (Abcam), respectively.

[2] = db/db mice, 5 mg/kg twice per week, 5 weeks
[3] = db/db mice, 5 mg/kg twice per week, 5 weeks, vs CNTR
[4] = DIO mice, 5 mg/kg twice per week, 5 weeks
[5] = DIO mice, 5 mg/kg twice per week, 5 weeks, vs CNTR

Sequence: YGRKKRRQRRRTKASGMALLHEPLNRPQLKIPLERDSSKPAVYNY ({FITC}-YGRKKRRQRRRTKASGMALLHEPLNRPQLKIPLERDSSKPAVYNY) [AF1 peptide]
- liver triglycerides (db/db mice; db/db mice): decreasing trend
- serum HDL (db/db mice; db/db mice): significantly reduced
- serum LDL (db/db mice; db/db mice): significantly reduced
- serum NEFA (db/db mice; db/db mice): significantly reduced
- serum cholesterol (db/db mice; db/db mice): significantly reduced
- serum insulin (db/db mice; db/db mice): limited effect
- serum triglycerides (db/db mice; db/db mice): decreasing trend
- overnight fasting blood glucose (db/db mice; [2]): 103.8 ± 3.6 mg/dL
- random feeding blood glucose (db/db mice; [2]): 360.7 ± 25.1 mg/dL
- decrease in overnight fasting blood glucose (db/db mice; [3]): 35%
- reduction in random feeding blood glucose (db/db mice; [3]): 22%
- liver steatosis (steatosis structure and liver fat amount) (db/db mice; db/db mice, H&E and Oil Red O staining): significantly decreased
- blood glucose upon glucose or insulin challenge (db/db mice; db/db mice, glucose and insulin tolerance tests): significantly decreased
- decrease in pIRS1-S302 (db/db mice; db/db mice, liver): 61%
- increase in IRS1 (db/db mice; db/db mice, liver): 114%
- increase in pAKT-S473 (db/db mice; db/db mice, liver): 98%
- increase in pAKT-T308 (db/db mice; db/db mice, liver): 101%
- pAKT-S473 and pAKT-T308 (db/db mice; db/db mice, skeletal muscle and epididymal fat tissues): significantly increased
- serum ALP (db/db mice; mouse, in vivo): limited effect
- serum ALT (db/db mice; mouse, in vivo): limited effect
- serum AST (db/db mice; mouse, in vivo): significantly reduced
- decrease in serum NEFA ([1]; DIO mice): 21%
- decrease in serum cholesterol ([1]; DIO mice): 8%
- decrease in serum triglyceride ([1]; DIO mice): 21%
- glucose tolerance ([1]; DIO mice): significantly improved
- insulin sensitivity ([1]; DIO mice): significantly improved
- serum HDL ([1]; DIO mice): decreases
- serum LDL ([1]; DIO mice): decreases
- serum insulin ([1]; DIO mice): not changed
- overnight fasting blood glucose [1, 4]: 85.4 ± 0.2 mg/dL
- random feeding blood glucose [1, 4]: 154.2 ± 4.7 mg/dL
- decrease in overnight fasting blood glucose [1, 5]: 20%
- decrease in random feeding blood glucose [1, 5]: 12%
- liver fat accumulation ([1]; DIO mice, H&E staining): ameliorated
- decrease in pIRS1-302 ([1]; DIO mice, liver): 32%
- increase in IRS1 ([1]; DIO mice, liver): 49%
- increase in pAKT-308 ([1]; DIO mice, liver): 51%
- increase in pAKT-S473 ([1]; DIO mice, liver): 100%
- mRNA expression of FAO gene (Hadha) ([1]; DIO mice, liver, q-PCR): increased
- mRNA expression of gluconeogenic gene (Pck1) ([1]; DIO mice, liver, q-PCR): significantly decreased
- mRNA expression of inflammatory cytokine (Il6) ([1]; DIO mice, liver, q-PCR): significantly decreased
- mRNA expression of lipogenic gene (Fasn) ([1]; DIO mice, liver, q-PCR): significantly decreased
- serum ALP ([1]; mouse, in vivo): not changed
- serum ALT ([1]; mouse, in vivo): not changed
- serum AST ([1]; mouse, in vivo): not changed
